{
  "source": "patent US7648966B2",
  "about": "“Mannose-6-phosphonate compounds for the treatment of inflammatory diseases” (Pharmaxis Pty Limited, priority 2003, dated 2010)",
  "test_system": "picryl chloride-sensitized T lymphocyte migration into the right ear pinna",
  "assay": "Inhibition of T lymphocyte migration into extralymphatic tissue (picryl chloride-painted ear pinna) in vivo",
  "set-up": "species or system Balb/c mice",
  "conditions": "5 mg/mouse IV; 9-10 hours after cell infusion",
  "from_the_text": "The foregoing methods are recognized and well understood by those skilled in the art and the underlying principles can be found in any immunology textbook such as those cited above. Here donor animals are sensitized to a self protein (in practice, skin is the easiest tissue to use) by chemically modifying the protein(s) in this tissue thereby allowing the chemical moiety to be ‘seen’ as ‘foreign’ tissue by the immune system. This is done by reacting the skin (“painting”) with a ‘hapten’ which is usually an alkylating or arylating agent that reacts covalently with and thereby modifies protein(s) in the skin. Seven to ten days following sensitization, spleens or draining LNs are taken from the donor animals. […] Within a short time of cell transfer sensitized T cells begin to accumulate in the hapten-modified tissue, 8-24 hours later the tissue can be removed and the cell accumulation assessed. In the case of fluorescently-labeled cells, their accumulation is assessed histologically or histochemically, and in the case of radiolabeled cells, accumulation is assessed by counting radioactive decay in a suitable device. […]\nB lymphocytes were depleted as described in Example 3. The enriched lymphocyte population contained approximately 85-90% T lymphocytes and <1% B cells (determined by FACS analysis). […]",
  "data": [
    {"smiles": "Cc1ccc(O[C@H]2O[C@H](CCP(=O)(O)O)[C@@H](O)[C@H](O)[C@@H]2O)c(C)c1", "values": [
      {"measurement": "Percent inhibition of T cell migration (right ear pinna)", "result": 56.1, "unit": "%"}
    ]}
  ]
}
